Test results from ChEMBL document CHEMBL1201862, “PubChem BioAssay data set” (2004).
The source made the active and inactive calls.

What was measured:
[1] = target: T1, Apoptotic protease-activating factor 1 (Homo sapiens, UniProt O14727); assay: SAR analysis of small molecule Activators of Apaf-1 in a Fluorescent assay - set 2.; type: functional; details: read-out: EC50_Mean
T1 sequence (O14727 whole entry): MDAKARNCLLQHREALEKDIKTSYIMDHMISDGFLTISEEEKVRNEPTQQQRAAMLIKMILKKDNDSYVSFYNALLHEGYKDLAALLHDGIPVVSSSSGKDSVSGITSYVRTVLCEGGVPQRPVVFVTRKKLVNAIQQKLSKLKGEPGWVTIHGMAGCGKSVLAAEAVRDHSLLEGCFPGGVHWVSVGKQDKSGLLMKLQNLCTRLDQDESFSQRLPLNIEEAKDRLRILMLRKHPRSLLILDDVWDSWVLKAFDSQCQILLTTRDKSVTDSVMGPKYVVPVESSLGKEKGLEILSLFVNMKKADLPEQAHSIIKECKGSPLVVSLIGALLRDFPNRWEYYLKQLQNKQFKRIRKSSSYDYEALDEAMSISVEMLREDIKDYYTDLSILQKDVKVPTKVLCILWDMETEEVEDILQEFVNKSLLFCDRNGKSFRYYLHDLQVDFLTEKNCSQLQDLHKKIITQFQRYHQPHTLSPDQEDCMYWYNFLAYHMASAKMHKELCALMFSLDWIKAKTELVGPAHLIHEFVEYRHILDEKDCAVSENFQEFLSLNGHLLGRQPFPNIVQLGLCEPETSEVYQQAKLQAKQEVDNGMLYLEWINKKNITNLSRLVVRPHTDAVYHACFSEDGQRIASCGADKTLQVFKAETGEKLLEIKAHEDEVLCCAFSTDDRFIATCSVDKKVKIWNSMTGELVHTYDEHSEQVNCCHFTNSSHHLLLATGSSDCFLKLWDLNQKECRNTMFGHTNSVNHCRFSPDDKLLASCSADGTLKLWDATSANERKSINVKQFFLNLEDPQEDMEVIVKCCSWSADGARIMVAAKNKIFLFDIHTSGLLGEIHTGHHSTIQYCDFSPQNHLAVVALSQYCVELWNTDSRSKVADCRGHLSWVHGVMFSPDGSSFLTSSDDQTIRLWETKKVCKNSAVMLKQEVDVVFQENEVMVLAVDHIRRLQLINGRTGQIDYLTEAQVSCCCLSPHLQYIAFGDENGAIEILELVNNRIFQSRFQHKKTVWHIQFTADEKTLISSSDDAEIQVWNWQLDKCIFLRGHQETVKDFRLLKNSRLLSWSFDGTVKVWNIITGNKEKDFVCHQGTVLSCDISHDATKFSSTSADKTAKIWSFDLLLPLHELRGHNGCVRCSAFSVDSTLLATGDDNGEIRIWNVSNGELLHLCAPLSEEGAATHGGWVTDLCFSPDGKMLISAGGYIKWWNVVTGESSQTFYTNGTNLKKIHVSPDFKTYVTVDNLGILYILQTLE

[2] = SAR analysis of small molecule activators of Apaf-1 using a LZ-Caspase-9/Caspase-3 Fluorescent Selectivity assay - Set 2.; type: functional; details: read-out: EC50_Mean
[3] = target: T2, Neuropeptides B/W receptor type 1 (Homo sapiens, UniProt P48145); assay: human NPBW1 receptor blockade, IC50 – cell-based, fluorescence, dose response, set 6, late-stage follow-up (AID 588583); type: functional
T2 sequence (P48145 whole entry): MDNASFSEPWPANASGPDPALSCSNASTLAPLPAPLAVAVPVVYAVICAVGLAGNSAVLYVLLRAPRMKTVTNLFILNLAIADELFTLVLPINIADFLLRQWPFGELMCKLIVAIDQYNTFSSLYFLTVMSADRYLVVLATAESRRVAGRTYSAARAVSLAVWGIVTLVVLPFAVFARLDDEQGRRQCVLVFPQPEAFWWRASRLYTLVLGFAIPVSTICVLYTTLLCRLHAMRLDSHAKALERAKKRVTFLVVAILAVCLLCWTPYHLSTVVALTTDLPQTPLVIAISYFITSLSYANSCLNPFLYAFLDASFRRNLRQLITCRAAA

[4] = target: Melanin-concentrating hormone receptor 1 (Homo sapiens, UniProt Q99705); assay: Late-stage fluorescence-based counterscreen for antagonists of the G-protein coupled receptor 7 (GPR7): cell-based dose response assay to identify antagonists of the melanin-concentrating hormone receptor 1 (MCHR1) Set 6.; type: functional
Sequence of Melanin-concentrating hormone receptor 1 (Q99705 whole entry): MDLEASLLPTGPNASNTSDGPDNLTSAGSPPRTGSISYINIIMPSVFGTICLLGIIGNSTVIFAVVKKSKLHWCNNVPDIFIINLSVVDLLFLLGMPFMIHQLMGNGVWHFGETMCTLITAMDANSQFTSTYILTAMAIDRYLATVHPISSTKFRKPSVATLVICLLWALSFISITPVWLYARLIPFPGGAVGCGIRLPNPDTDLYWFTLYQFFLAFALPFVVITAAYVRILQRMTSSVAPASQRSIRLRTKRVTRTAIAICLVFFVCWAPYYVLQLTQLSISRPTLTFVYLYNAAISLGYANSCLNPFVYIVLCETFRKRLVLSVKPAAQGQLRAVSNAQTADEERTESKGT

[5] = HepG2 cell cytotoxicity, cytotoxicity control, set 4 (AID 504910); type: functional; details: Mycobacterium tuberculosis
[6] = THP-1 cell cytotoxicity, cytotoxicity control, set 4 (AID 504911); type: functional; details: Mycobacterium tuberculosis
[7] = Vero cell cytotoxicity, dose response, cytotoxicity control for M. tuberculosis growth inhibitor project, Vero cells, purified and synthesized compounds, set 5 (AID 504909); type: functional; details: Mycobacterium tuberculosis
[8] = target: T3, Streptokinase A (Streptococcus pyogenes serotype M1, UniProt P10520); assay: viability-normalized secreted streptokinase activity reduction – plasminogen activation absorbance, OD405, dose response (AID 1914); type: functional, Streptococcus pyogenes M1 GAS;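 further: secreted streptokinase activity via plasminogen activation per viability signal from cell pellet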
T3 sequence (P10520 whole entry): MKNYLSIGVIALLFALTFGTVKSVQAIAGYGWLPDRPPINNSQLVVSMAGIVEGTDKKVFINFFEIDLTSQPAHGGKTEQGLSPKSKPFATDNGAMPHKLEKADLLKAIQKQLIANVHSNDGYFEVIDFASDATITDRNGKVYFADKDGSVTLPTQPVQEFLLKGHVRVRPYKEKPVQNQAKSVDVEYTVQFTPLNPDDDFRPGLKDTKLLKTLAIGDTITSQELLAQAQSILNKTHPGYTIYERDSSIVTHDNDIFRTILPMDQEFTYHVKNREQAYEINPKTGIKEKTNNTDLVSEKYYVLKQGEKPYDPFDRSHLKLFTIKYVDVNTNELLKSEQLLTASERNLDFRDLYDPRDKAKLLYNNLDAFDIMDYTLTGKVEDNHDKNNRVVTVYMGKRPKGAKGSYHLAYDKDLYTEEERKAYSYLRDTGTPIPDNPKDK

[9] = tested on: Streptococcus sp. 'group A'; assay: Streptococcus pyogenes SK(-)GAS viability under kanamycin – luminescence, BacTiterGlo, confirmation, counter-screen for streptokinase expression inhibitor project, dose response (AID 1900); type: functional, organism-based
[10] = tested on: INS1; assay: INS-1E survival protection against cytokine death – cell-based, luminescence, retest, dose response (AID 449756); type: functional; details: Rattus norvegicus;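 further: cell death triggered by IL-1 beta plus TNF-alpha plus IFN-gamma mixture; protective hits raise ATP signal compared with cytokine alone wells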
[11] = tested on: Streptococcus; assay: GAS UMAA2166 growth inhibition – luminescence, BacTiterGlo, counter-screen for streptokinase expression inhibitor project, dose response (AID 1915); type: functional, organism-based;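 further: potency for reduction of bacterial viability or growth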

O=C(O)C1(Cn2cccn2)CC1
inactive: EC50 [1] > 100 µM | EC50 [2] > 100 µM

NC(=O)C(c1ccccc1)c1c(Cl)cnn(Cc2cccc3ccccc23)c1=O (stereo unspecified)
inactive: IC50 [3] > 20 µM | IC50 [4] > 20 µM

CC(C)/N=c1\cc2n(-c3ccc(Cl)cc3)c3ccccc3nc-2cc1Nc1ccc(Cl)cc1 [CLOFAZIMINE]
active: CC50 [5] 4.7 µM | CC50 [6] 2.2 µM | CC50 [7] 10.2 µM | EC50 [8] 2.28 µM | EC50 [9] 1.86 µM | AC50 [10] 2.06 µM | EC50 [11] 36.9 µM
